Assay results as given in patent US20240336622A1 (The Board of Regents of The University of Texas System, priority 2021, published 2024).
Like-named read-outs stand apart in the source and are kept apart here.

What was measured:
[1] = tested on: UWB1, A673, Fadu, H2058, H1048, MDA-MB-468 cells; assay: Cytotoxicity in cancer cell lines with different genetic background (cell titer glo); assay type: cell-based; settings: 1 μM for 96 hours
From the text: Cells were then subjected to cell titer glo analysis. Data represent mean±SEM.

PARP1 = PARP1 trapping activity of nimbolide analogs (FIGS. 19, 20); assay type: cell-based; settings: for PARP1 trapping by nimbolide analogs: FIGS. 19 and 20
UWB1 cells [2] = assay: cells
UWB1 cells [3] = tested on: UWB1 cells
H889 and H82 cells = assay: Sensitivity of Talazoparib-resistant small cell lung cancer cells; assay type: cell-based
[4] = read-out: IC50 (μM) UWB1 cells, UWB1 cell viability

SMILES	PARP1 trapping by nimbolide analogs (PARP1)	IC50 (UWB1 cells [2]; [4]) [µM]	also measured
O=C(c1cc(Cc2n[nH]c(=O)c3ccccc23)ccc1F)N1CCN(C(=O)C2CC2)CC1 [Olaparib, olaparib]	–	–	sensitivity of cell lines (UWB1, A673, Fadu, H2058, H1048, MDA-MB-468) [1]: different degrees of sensitivity
CNCc1ccc(-c2[nH]c3cc(F)cc4c3c2CCNC4=O)cc1 [Rucaparib, rucaparib]	–	–	sensitivity of cell lines (UWB1, A673, Fadu, H2058, H1048, MDA-MB-468) [1]: different degrees of sensitivity
C=C1[C@H](O[C@@H]2C[C@@H](c3ccoc3)C(C)=C2I)[C@@H]2OC(=O)[C@]3(C)C=CC(=O)[C@@](C)([C@@H]23)[C@H]1CC(=O)OC [S-26]	induce profound PARP1 trapping	–	IC50 (UWB1 cells [2]; read-out: IC50 (μM) UWB1 cells): 0.226 µM
CC[Si](CC)(CC)O[C@H]1C(=O)[C@H](CC(=O)OC)[C@@]2(C)C(=O)C=C[C@@]3(C)C(=O)O[C@@H]1[C@H]23 [S-39]	induce PARP1 trapping	–	IC50 (UWB1 cells [2]; read-out: IC50 (μM) UWB1 cells): 1.18 µM
COC(=O)C[C@H]1[C@]2(C)C3=C(C)[C@H](c4ccoc4-c4ccc(O[Si](C)(C)C(C)(C)C)cc4)C[C@H]3O[C@@H]2[C@@H]2OC(=O)[C@]3(C)C=CC(=O)[C@@]1(C)[C@@H]23 [S-46]	induce PARP1 trapping	0.089	trapping activity compared to nimbolide (PARP1; FIG. 19): more potent trapping activity; cytotoxicity against UWB1 cells (UWB1 cells [3]): excellent cytotoxicity
COC(=O)C[C@H]1[C@]2(C)C3=C(C)[C@H](C4=CC(=O)OC4OC(C)=O)C[C@H]3O[C@@H]2[C@@H]2OC(=O)[C@]3(C)C=CC(=O)[C@@]1(C)[C@@H]23 (stereo partly shown) [S-51]	–	–	IC50 (UWB1 cells [3]; [4]): 0.954 µM
C=C1[C@H](O[C@H]2CCC(C)=C2I)[C@@H]2OC(=O)[C@]3(C)C=CC(=O)[C@@](C)([C@@H]23)[C@H]1CC(=O)OC [S-84]	induce profound PARP1 trapping	0.183	–
CC1=C2C[C@@H]3[C@H](O[C@@H]2C[C@H]1c1ccoc1)[C@@H]1OC(=O)[C@]2(C)C=CC(=O)[C@@](C)([C@@H]12)[C@H]3CC(=O)OC(C)(C)C [S-155]	–	0.306	–
C=C1[C@H](O)[C@@H]2OC(=O)[C@]3(C)C=CC(=O)[C@@](C)([C@@H]23)[C@H]1CC(=O)OC(C)(C)C [S-156]	–	3.65	–
Cn1ncnc1[C@H]1c2n[nH]c(=O)c3cc(F)cc(c23)N[C@@H]1c1ccc(F)cc1 [Talazoparib, talazoparib]	–	–	sensitivity of H889 and H82 cells (H889 and H82 cells): resistant
